Measurements reported in patent US12077503B2, “Substituted cyclic amides and their use as herbicides” (FMC CORPORATION, priority 2015, dated 2024).

How the values were obtained:
Assay type in all cases: in vivo
[1] = test system: barnyardgrass (Echinochloa crus-galli); assay: Test G Pre-Emergence Protocol; details: Echinochloa crus-galli, pre-emergence, 312 h, evaluated after 13 days; for pest or weed control at 15.625 g/ha: 15.625 g ai/ha; for pest or weed control at 15.625 g/ha / pest or weed control at 250 g/ha: read-out: Barnyardgrass damage rating (100=total damage to plant; 0=no damage to plant); for pest or weed control at 62.5 g/ha: 62.5 g ai/ha, 100=total damage to plant, 0=no damage to plant, read-out: Barnyardgrass damage rating; for pest or weed control at 250 g/ha: 250 g ai/ha
How it was run: (§1)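 Test compound in 0.5% Tween 20 acetone/water (50:50) was applied at three rates (15.625, 62.5, 250 g/ha) to soil sown one day earlier. After 13 days plants were scored for injury, where 0 means unaffected and 100 means completely damaged.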

[2] = test system: corn (Zea mays); assay: Test G Pre-Emergence Protocol; details: Zea mays, pre-emergence, 312 h, evaluated after 13 days; for plant injury at 15.625 g/ha: 15.625 g ai/ha; for plant injury at 15.625 g/ha / plant injury at 250 g/ha: read-out: Corn damage rating (100=total damage to plant; 0=no damage to plant); for plant injury at 62.5 g/ha: 62.5 g ai/ha, 100=total damage to plant, 0=no damage to plant, read-out: Corn damage rating; for plant injury at 250 g/ha: 250 g ai/ha
How it was run: as §1

[3] = test system: giant foxtail (Setaria faberi); assay: Test G Pre-Emergence Protocol; details: Setaria faberi, pre-emergence, 312 h, evaluated after 13 days; for pest or weed control at 15.625 g/ha: 15.625 g ai/ha; for pest or weed control at 15.625 g/ha / pest or weed control at 250 g/ha: read-out: Foxtail, Giant damage rating (100=total damage to plant; 0=no damage to plant); for pest or weed control at 62.5 g/ha: 62.5 g ai/ha, 100=total damage to plant, 0=no damage to plant, read-out: Foxtail, Giant damage rating; for pest or weed control at 250 g/ha: 250 g ai/ha
How it was run: as §1

[4] = test system: ivy-leaved morning glory (Ipomoea hederacea); assay: Test G Pre-Emergence Protocol; details: Ipomoea, pre-emergence, 312 h, evaluated after 13 days; for pest or weed control at 15.625 g/ha: 15.625 g ai/ha; for pest or weed control at 15.625 g/ha / pest or weed control at 250 g/ha: read-out: Morningglory, Ivy-leaved damage rating (100=total damage to plant; 0=no damage to plant); for pest or weed control at 62.5 g/ha: 62.5 g ai/ha, 100=total damage to plant, 0=no damage to plant, read-out: Morningglory, Ivy-leaved damage rating; for pest or weed control at 250 g/ha: 250 g ai/ha
How it was run: as §1

[5] = test system: redroot pigweed (Amaranthus retroflexus); assay: Test G Pre-Emergence Protocol; details: Amaranthus retroflexus, pre-emergence, 312 h, evaluated after 13 days; for pest or weed control at 15.625 g/ha: 15.625 g ai/ha; for pest or weed control at 15.625 g/ha / pest or weed control at 250 g/ha: read-out: Pigweed, Redroot damage rating (100=total damage to plant; 0=no damage to plant); for pest or weed control at 62.5 g/ha: 62.5 g ai/ha, 100=total damage to plant, 0=no damage to plant, read-out: Pigweed, Redroot damage rating; for pest or weed control at 250 g/ha: 250 g ai/ha
How it was run: as §1

[6] = test system: velvetleaf (Abutilon theophrasti); assay: Test G Pre-Emergence Protocol; details: Abutilon theophrasti, pre-emergence, 312 h, evaluated after 13 days; for pest or weed control at 15.625 g/ha: 15.625 g ai/ha; for pest or weed control at 15.625 g/ha / pest or weed control at 250 g/ha: read-out: Velvetleaf damage rating (100=total damage to plant; 0=no damage to plant); for pest or weed control at 62.5 g/ha: 62.5 g ai/ha, 100=total damage to plant, 0=no damage to plant, read-out: Velvetleaf damage rating; for pest or weed control at 250 g/ha: 250 g ai/ha
How it was run: as §1

[7] = test system: barnyardgrass (Echinochloa crus-galli); assay: Test G Post-Emergence Protocol; details: Echinochloa crus-galli, post-emergence, 312 h, read-out: Barnyardgrass damage rating; for pest or weed control at 15.625 g/ha: 15.625 g ai/ha, evaluated after 13 days (100=total damage to plant; 0=no damage to plant); for pest or weed control at 62.5 g/ha: 62.5 g ai/ha; for pest or weed control at 62.5 g/ha / pest or weed control at 250 g/ha: evaluated after 13 days, 100=total damage to plant, 0=no damage to plant; for pest or weed control at 250 g/ha: 250 g ai/ha
How it was run: (§2)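 Damage was rated 13 days after treatment from 0 (none) to 100 (plant killed). Compound was applied as a spray at 15.625, 62.5 or 250 g/ha in 50:50 acetone/water containing 0.5% Tween 20, onto 8-day-old potted plants kept in a glasshouse (24/16 °C, 14 h light, 65% humidity).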

[8] = test system: corn (Zea mays); assay: Test G Post-Emergence Protocol; details: Zea mays, post-emergence, 312 h, read-out: Corn damage rating; for plant injury at 15.625 g/ha: 15.625 g ai/ha, evaluated after 13 days (100=total damage to plant; 0=no damage to plant); for plant injury at 62.5 g/ha: 62.5 g ai/ha; for plant injury at 62.5 g/ha / plant injury at 250 g/ha: evaluated after 13 days, 100=total damage to plant, 0=no damage to plant; for plant injury at 250 g/ha: 250 g ai/ha
How it was run: as §2

[9] = test system: giant foxtail (Setaria faberi); assay: Test G Post-Emergence Protocol; details: Setaria faberi, post-emergence, 312 h, read-out: Foxtail, Giant damage rating; for pest or weed control at 15.625 g/ha: 15.625 g ai/ha, evaluated after 13 days (100=total damage to plant; 0=no damage to plant); for pest or weed control at 62.5 g/ha: 62.5 g ai/ha; for pest or weed control at 62.5 g/ha / pest or weed control at 250 g/ha: evaluated after 13 days, 100=total damage to plant, 0=no damage to plant; for pest or weed control at 250 g/ha: 250 g ai/ha
How it was run: as §2

[10] = test system: ivy-leaved morning glory (Ipomoea hederacea); assay: Test G Post-Emergence Protocol; details: Ipomoea, post-emergence, 312 h, read-out: Morningglory, Ivy-leaved damage rating; for pest or weed control at 15.625 g/ha: 15.625 g ai/ha, evaluated after 13 days (100=total damage to plant; 0=no damage to plant); for pest or weed control at 62.5 g/ha: 62.5 g ai/ha; for pest or weed control at 62.5 g/ha / pest or weed control at 250 g/ha: evaluated after 13 days, 100=total damage to plant, 0=no damage to plant; for pest or weed control at 250 g/ha: 250 g ai/ha
How it was run: as §2

[11] = test system: redroot pigweed (Amaranthus retroflexus); assay: Test G Post-Emergence Protocol; details: Amaranthus retroflexus, post-emergence, 312 h, read-out: Pigweed, Redroot damage rating; for pest or weed control at 15.625 g/ha: 15.625 g ai/ha, evaluated after 13 days (100=total damage to plant; 0=no damage to plant); for pest or weed control at 62.5 g/ha: 62.5 g ai/ha; for pest or weed control at 62.5 g/ha / pest or weed control at 250 g/ha: evaluated after 13 days, 100=total damage to plant, 0=no damage to plant; for pest or weed control at 250 g/ha: 250 g ai/ha
How it was run: as §2

[12] = test system: velvetleaf (Abutilon theophrasti); assay: Test G Post-Emergence Protocol; details: Abutilon theophrasti, post-emergence, 312 h, read-out: Velvetleaf damage rating; for pest or weed control at 15.625 g/ha: 15.625 g ai/ha, evaluated after 13 days (100=total damage to plant; 0=no damage to plant); for pest or weed control at 62.5 g/ha: 62.5 g ai/ha; for pest or weed control at 62.5 g/ha / pest or weed control at 250 g/ha: evaluated after 13 days, 100=total damage to plant, 0=no damage to plant; for pest or weed control at 250 g/ha: 250 g ai/ha
How it was run: as §2

| Structure (SMILES) | pest or weed control at 15.625 g/ha [1] [%] | pest or weed control at 62.5 g/ha [1] [%] | pest or weed control at 250 g/ha [1] [%] | plant injury at 15.625 g/ha [2] [%] | plant injury at 62.5 g/ha [2] [%] | plant injury at 250 g/ha [2] [%] | pest or weed control at 15.625 g/ha [3] [%] | pest or weed control at 62.5 g/ha [3] [%] | pest or weed control at 250 g/ha [3] [%] | pest or weed control at 15.625 g/ha [4] [%] | pest or weed control at 62.5 g/ha [4] [%] | pest or weed control at 250 g/ha [4] [%] | pest or weed control at 15.625 g/ha [5] [%] | pest or weed control at 62.5 g/ha [5] [%] | pest or weed control at 250 g/ha [5] [%] | pest or weed control at 15.625 g/ha [6] [%] | pest or weed control at 62.5 g/ha [6] [%] | pest or weed control at 250 g/ha [6] [%] | pest or weed control at 15.625 g/ha [7] [%] | pest or weed control at 62.5 g/ha [7] [%] | also measured |
| --- | --- | --- | --- | --- | --- | --- | --- | --- | --- | --- | --- | --- | --- | --- | --- | --- | --- | --- | --- | --- | --- |
| Cc1ccc([C@H]2CN(C)C(=O)[C@@H]2C(=O)Nc2cccc3c2S(=O)(=O)CC3)cc1 (racemic) [Compound 1739] | 0 | 0 | 0 | 0 | 0 | 0 | 0 | 0 | 0 | 0 | 0 | 0 | 0 | 0 | 0 | 0 | 0 | 0 | 0 | 0 | pest or weed control at 250 g/ha [7]: 0%; plant injury at 15.625 g/ha [8]: 0%; plant injury at 62.5 g/ha [8]: 0%; plant injury at 250 g/ha [8]: 0%; pest or weed control at 15.625 g/ha [9]: 0%; pest or weed control at 62.5 g/ha [9]: 0%; pest or weed control at 250 g/ha [9]: 0%; pest or weed control at 15.625 g/ha [10]: 0%; pest or weed control at 62.5 g/ha [10]: 0%; pest or weed control at 250 g/ha [10]: 0%; pest or weed control at 15.625 g/ha [11]: 0%; pest or weed control at 62.5 g/ha [11]: 0%; pest or weed control at 250 g/ha [11]: 0%; pest or weed control at 15.625 g/ha [12]: 0%; pest or weed control at 62.5 g/ha [12]: 0%; pest or weed control at 250 g/ha [12]: 0% |
| CN1C[C@H](c2cccc(C(F)(F)F)c2)[C@@H](C(=O)Nc2cccc3c2S(=O)(=O)CC3)C1=O (racemic) [Compound 1738] | 0 | 0 | 70 | 0 | 0 | 0 | 0 | 0 | 70 | 0 | 0 | 0 | 0 | 0 | 0 | 0 | 0 | 0 | 0 | 40 | pest or weed control at 250 g/ha [7]: 80%; plant injury at 15.625 g/ha [8]: 0%; plant injury at 62.5 g/ha [8]: 0%; plant injury at 250 g/ha [8]: 0%; pest or weed control at 15.625 g/ha [9]: 20%; pest or weed control at 62.5 g/ha [9]: 40%; pest or weed control at 250 g/ha [9]: 70%; pest or weed control at 15.625 g/ha [10]: 0%; pest or weed control at 62.5 g/ha [10]: 0%; pest or weed control at 250 g/ha [10]: 0%; pest or weed control at 15.625 g/ha [11]: 20%; pest or weed control at 62.5 g/ha [11]: 10%; pest or weed control at 250 g/ha [11]: 10%; pest or weed control at 15.625 g/ha [12]: 0%; pest or weed control at 62.5 g/ha [12]: 10%; pest or weed control at 250 g/ha [12]: 10% |
